# Assay results published in patent EP4696693A1, “HEXAHYDRO[1,4]OXAZINO[3,4-C]PYRIDO[2,1-F][1,2,4]TRIAZINE DEUTERATED DERIVATIVE, PHARMACEUTICAL COMPOSITION THEREOF, PREPARATION METHOD THEREFOR, AND ANTI-INFLUENZA USE THEREOF” (Changsha Jingyi Pharmaceutical Technology Co., Ltd, priority 2023, dated 2024).
# Tests used:
# [1] = In vitro cytotoxicity, Cell Counting Kit (CCK-8); format: cell-based, canine; conditions: dog; MDCK cells, 48 h incubation, CCK-8, OD450nm; read-out: IC50 (cytotoxic effects on MDCK cells)
# Method: The in vitro cytotoxic effects of the test compound (the compound of Formula I) and the positive control drugs (baloxavir marboxil, baloxavir, T-3 compound and T-4 compound) on Madin-Darby canine kidney (MDCK) cells were determined using a Cell Counting Kit (CCK-8). MDCK cells were seeded in 96-well plates and cultured overnight. After different concentrations of the drugs were added, the cells were incubated for 48 h. CCK-8 was then added, and the cells were incubated in the dark for […]. The optical density (OD) at 450 nm (OD450nm) values were measured using a microplate reader, and the half-maximal inhibitory concentration (IC50) of the drugs on the cells was calculated.
# [2] = tested on: influenza A virus subtype H3N2 strain (A/California/2/2014); test: Cytopathic effect (CPE) assay in MDCK cells, influenza A; format: cell-based; conditions: for EC50: Influenza A virus, H3N2, MDCK cells, 100 TCID50, CPE assay, CCK-8, read-out: EC50 against the influenza A virus subtype H3N2 strain (A/California/2/2014)
# [3] = tested on: influenza B virus strain (B/Florida/78/2015); test: Cytopathic effect (CPE) assay in MDCK cells, influenza B; format: cell-based; conditions: 100 TCID50, CPE assay, CCK-8, read-out: EC50 against the influenza B virus strain (B/Florida/78/2015)
# [4] = tested on: H3N2 influenza A virus; test: In vivo pharmacodynamics, influenza A virus infection model (lung index, lung viral load); conditions: H3N2-infected BALB/c mice, x ± s, n = 10; for Lung index: 6 mg/kg oral gavage once daily; for PCR viral load: lung tissue, 6 mg/kg
# Method: (§1) In this example, the H3N2 influenza A virus and the IBV influenza B virus were used to intranasally infect BALB/c mice to establish an influenza A virus infection model and an influenza B virus infection model. After infection, the compound of Formula I was administered to the mice by oral gavage. Changes in lung index and lung viral load of the mice were observed. Oseltamivir phosphate granules, baloxavir marboxil, T-3 compound and T-4 compound were set as positive controls to evaluate the in vivo efficacy of the compound of Formula I against influenza viruses.
# A total of 250 qualified SPF-grade BALB/c mice, weighing 11.9-15.1 g, half male and half female, were randomly divided into 7 groups based on genders and body weights: normal control group, model control group, oseltamivir phosphate granules group (6 mg/kg), baloxavir marboxil group (6 mg/kg), T-3 compound group (6 mg/kg), T-4 compound group (6 mg/kg) and Compound of Formula I group (6 mg/kg). The normal control group, oseltamivir phosphate granules group, baloxavir marboxil group, T-3 compound group (6 mg/kg) and T-4 compound group each included 30 mice, and the model control group and the Compound of Formula I group each included 50 mice. Two hours before the first administration, all mice were lightly anesthetized with ether. Except for the normal control group, all mice were intranasally inoculated with the stock solution of H3N2 influenza A virus (viral titer: 6 log2) at 100 µL per mouse. The normal control group was administrated with an equal volume of phosphate-buffered solution intranasally. Each group of mice was administered the corresponding concentration of the drug solution at 20 mL/kg, once daily for 5 consecutive days. The normal control group and the model control group were administered an equal volume of 0.5% methylcellulose (0.5% MC) by oral gavage. The body weights of the mice in each group were recorded daily. At 24 h and 48 h after administration, 10 mice (half male and half female) were randomly selected from each group and euthanized by cervical dislocation, and their lungs were dissected and weighed to calculate the lung index. The influenza A viral load in the lung tissue of the mice was detected using a real-time quantitative polymerase chain reaction (PCR) method. In the model control group and the Compound of Formula I group, 10 mice were euthanized at 12 h, 24 h, 48 h, 72 h, and 5 days after administration. The left lung was collected to assess the H3N2 influenza A viral load. […]
# [5] = tested on: IBV influenza B virus; test: In vivo pharmacodynamics, influenza B virus infection model (lung index, lung viral load); design: PCR relative quantification: unit not given here; conditions: IBV-infected BALB/c mice, x ± s, n = 10; for Lung index: 6 mg/kg oral gavage once daily; for PCR relative quantification: lung tissue, dose printed 18 mg/kg
# Method: as §1
# A total of 210 qualified SPF-grade BALB/c mice, weighing 13.0-15.4 g, half male and half female, were randomly divided into 7 groups based on genders and body weights: normal control group, model control group, oseltamivir phosphate granules group (6 mg/kg), baloxavir marboxil group (6 mg/kg), T-3 compound group (6 mg/kg), T-4 compound group (6 mg/kg) and Compound of Formula I group (6 mg/kg), 30 mice per group. Two hours before the first administration, all mice were lightly anesthetized with ether. Except for the normal control group, all mice were intranasally inoculated with the stock solution of IBV influenza B virus (viral titer: 8 log2) at 100 µL per mouse. The normal control group was administrated with an equal volume of phosphate-buffered solution intranasally. Each group of mice was administered the corresponding concentration of the drug solution at 20 mL/kg by oral gavage, once daily for 5 consecutive days. The normal control group and the model control group were administered an equal volume of 0.5% MC. The body weights of the mice in each group were recorded daily. At 24 h and 48 h after administration, 10 mice (half male and half female) were randomly selected from each group and euthanized by cervical dislocation, and their lungs were dissected and weighed to calculate the lung index. The influenza B viral load in the lung tissue of the mice was detected using a relative fluorescence quantitative PCR method. […]
# [6] = Pharmacokinetics after oral gavage of MC suspension, plasma LC-MS/MS; design: species or system SD rats; conditions: SD, rat, in vivo, 0.9 mg/kg
# Method: This example investigated the pharmacokinetics profile of the compound of Formula I administered as a methylcellulose (MC) suspension by oral gavage in rats.
# The drug concentration of baloxavir was determined using a validated LC-MS/MS analytical method. Plasma samples were precipitated with acetonitrile, and the supernatant was injected for analysis. A chromatographic column, Waters XBridge C8 2.5 µm 2.1×50 mm Column, was used, and a gradient elution was carried out using a mobile phase of 0.1% formic acid in water and acetonitrile (containing 0.1% formic acid), with a flow rate of 0.60 mL/min. Monitoring was carried out using an electrospray ionization (ESI) source in a positive ion mode with a multiple reaction monitoring (MRM) method. The linear range for baloxavir was 0.1000 to 100.0 ng/mL, with a lower limit of quantification of 0.1000 ng/mL; the linear range for baloxavir marboxil was 0.1000 to 5.000 ng/mL, with a lower limit of quantification of 0.1000 ng/mL; the linear range for the compound of Formula I was 0.1000 to 5.000 ng/mL, with a lower limit of quantification of 0.1000 ng/mL; the linear range for the T-3 compound was 0.1000 to 5.000 ng/mL, with a lower limit of quantification of 0.1000 ng/mL; and the linear range for the T-4 compound was 0.1000 to 5.000 ng/mL, with a lower limit of quantification of 0.1000 ng/mL.
# This experiment used the marketed drug baloxavir marboxil and the analogous compounds T-3 and T-4 as references to investigate the differences in single-dose pharmacokinetics characteristics between the compound of Formula I and the above compounds. The dose groups were designed as follows: baloxavir marboxil group, with a medium dose (0.9 mg/kg, calculated as baloxavir), T-3 and T-4 compound groups, with a medium dose (0.9 mg/kg), and Compound of Formula I group, with a medium dose (0.9 mg/kg). Blood samples (approximately 0.2 mL) were collected via the orbital plexus before administration (0 h) and at 5 min, 15 min, 30 min, 1 h, 2 h, 4 h, 6 h, 8 h, 12 h, and 24 h after administration. Plasma was separated by centrifugation at 1700 g for 10 min, and plasma drug concentrations were determined by the LC-MS/MS method. Measured concentration values below 80% of the lower limit of quantification of the analyzed subject were considered not detected (counted as zero) or below the limit of quantification (counted as ND); values before the peak concentration Cmax were counted as zero, and values after the peak concentration were counted as ND. Pharmacokinetics parameters were calculated using Phoenix WinNonlin 8.0 software.
# The main pharmacokinetics parameter experiment results are as follows: The primary pharmacokinetics parameters after the administration of different doses of a suspension of the compound of Formula I to SD rats by oral gavage are shown in Table 5 below.
Structure (SMILES),IC50 at 48 h [1] [nM],EC50 [2] [nM],EC50 [3] [nM],Lung index ([4]; 24 h after administration),Lung index ([4]; 48 h after administration),PCR viral load ([4]; 24 h after administration),PCR viral load ([4]; 48 h after administration),Lung index ([5]; 24 h after administration) [mg/g],Lung index ([5]; 48 h after administration),AUC 0-t [6],AUC 0-∞ [6],Cmax [6],Tmax [6],"protection against influenza virus-induced cell damage ([2]; concentration of 250 nM, influenza virus, strain not specified)",PCR relative quantification ([5]; 24 h after administration),PCR relative quantification ([5]; 48 h after administration)
O=C1c2c(O)c(=O)ccn2N([C@@H]2c3ccccc3SCc3c2ccc(F)c3F)[C@@H]2COCCN12 [baloxavir],10400,1.31,2.06,,,,,,,,,,,,,
COC(=O)OCOc1c2n(ccc1=O)N([C@@H]1c3ccccc3SCc3c1ccc(F)c3F)[C@@H]1COCCN1C2=O [baloxavir marboxil],11600,13.4,15.4,9.53 ± 0.80 mg/g,9.11 ± 0.96 mg/g,1919953 ± 784647^×× copies,320599 ± 202529 copies,11.64 ± 1.06,11.45 ± 0.66^× mg/g,157.8227 ± 56.5111 (35.81%) ng·h/mL,160.9111 ± 57.8613 (35.96%) ng·h/mL,23.1900 ± 7.9729 (34.38%) ng/mL,"1.0000 (0.250, 2.000) h",,,
"[2H]C([2H])([2H])C([2H])([2H])OC(=O)OCOc1c2n(ccc1=O)N([C@@H]1c3ccccc3SCc3c1ccc(F)c3F)[C@@H]1COCCN1C2=O [Compound of Formula I, [[(12aR)-12-[(11S)-7,8-difluoro-6,11-dihydrodibenzo[b,e]thiepin-11-yl]-6,8-dioxo-3,4,6,8,12,12 a-hexahydro-1H-[1,4]oxazino[3,4-c]pyrido[2,1-f][1,2,4]triazin-7-yl]oxy]methyl (ethyl-d5) carbonate]",17400,5.02,8.15,8.67 ± 0.51^×× mg/g,9.00 ± 0.57^× mg/g,1308927 ± 1042821^×× copies,193017 ± 192655^×× copies,12.01 ± 1.09,9.79 ± 0.90^×× mg/g,203.1047 ± 21.4237 (10.55%) ng·h/mL,207.7670 ± 25.0910 (12.08%) ng·h/mL,31.7780 ± 2.4334 (7.66%) ng/mL,"1.0000 (0.500, 2.000) h",significant protection,1416.57 ± 1122.12,1206.66 ± 1034.87
